Assay results reported in patent US6703229B2, “Aryl propenal double bond reductase” (Washington State University Research Foundation, priority 2000, dated 2004).
Values belong to the molecule of their own block, whether it stands above or below them.

What was measured:
[1] = target: reverse transcriptase (Human immunodeficiency virus type 1 group M subtype B, UniProt P04585); conditions: cited from earlier work
[2] = system: aryl propenal double bond reductase (SEQ ID NO:2); assay: Enzyme assay of recombinant aryl propenal double bond reductase (HPLC of products); type: biochemical, Pinus taeda; conditions: for reduction of the aryl propenal substrate by the recombinant reductase: recombinant enzyme expressed from SEQ ID NO:1, in the presence of [4R]-NADPH
Protocol: Enzyme assays—Each non-radioactive assay (250 μl) consisted of buffer (50 mM Tris-HCl, pH 8.0), substrate (12.5 mM in DMSO, 10 μl), NADPH (25 mM in H2O, 10 μl), and the enzyme preparation (30 μl containing 5 mM DTT). Controls were performed using either denatured enzyme (boiled 96° C., 10 min) or in absence of enzyme. After 1 hour incubation at 30° C. with shaking, the reaction mixture was extracted with EtOAc (500 μl×2) with the EtOAc solubles combined and evaporated to dryness in vacuo. The EtOAc solubles were dissolved in CH3CN (10 μl) and then in 3% AcOH (90 μl), and subjected to reverse-phase HPLC with UV detection (280 nm).
Radioactive assays were performed in the same way as the non-radioactive assay with the following exceptions: the reaction was initiated by addition of [4S-^3H] or [4R-^3H]NADPH (25 mM in H2O, 666.7 kBq 10 μl). The EtOAc solubles were reconstituted in CH3CN/H2O and subjected to reverse-phase HPLC as described above with 0.5 ml fractions collected and an aliquot (100 μl) of each removed for scintillation counting to determine the level of incorporation of ^3H into the products.
Reversed phase HPLC separation of substrates and products—Separation of dehydrodiconiferyl alcohol (DDC), dihydrodehydrodiconiferyl alcohol (DDDC), dehydrodiconiferyl aldehyde (DDCA), dihydrodehydrodiconiferyl aldehyde (DDDCA) coniferyl alcohol (CA), dihydroconiferyl alcohol (DCA), coniferyl aldehyde (CAL), and dihydroconiferyl aldehyde (DCAL) was carried out using a reverse-phase column (Symmetry Shield RP8, 3.9×150 mm, Waters) as follows: CH3CN-3% AcOH in H2O (1:9) from 0 to 5 min, then linear gradient to 1:3 between 5 to 30 min, and finally linear gradient to 100% CH3CN over 25 min, at a flow rate of 1 ml/min.

[3] = system: cAMP-phosphodiesterase; conditions: cited from earlier work

Molecule: (−)-trachelogenin
effectiveness against HIV (reverse transcriptase inhibitory activity) [1]: effective against HIV

Molecule: COc1cc(C[C@H]2C(=O)OC[C@@H]2Cc2ccc(OC)c(OC)c2)ccc1O [(−)-arctigenin]
effectiveness against HIV (reverse transcriptase inhibitory activity) [1]: effective against HIV

Molecule: CC(Cc1ccc(O)c(O)c1)C(C)Cc1ccc(O)c(O)c1 (stereo not shown) [nordihydroguaiaretic acid]
effectiveness against HIV (reverse transcriptase inhibitory activity) [1]: effective against HIV

reduction of the aryl propenal substrate by the recombinant reductase [2]: regiospecifically reduce the double-bond
Molecule: COc1cc([C@@H]2Oc3c(OC)cc(/C=C/C=O)cc3[C@H]2CO)ccc1O [dehydrodiconiferyl aldehyde]

Molecule: COc1cc(C[C@H]2COC(=O)[C@@H]2Cc2ccc(O)c(OC)c2)ccc1O [matairesinol]
inhibition of cAMP-phosphodiesterase [3]: inhibit cAMP-phosphodiesterase

Molecule: COc1cc(/C=C/C=O)ccc1O [coniferyl aldehyde]
reduction of the aryl propenal substrate by the recombinant reductase [2]: capable of reducing coniferyl aldehyde to dihydroconiferyl aldehyde

B1: aryl propenal double bond reductase (SEQ ID NO:2): Pinus taeda aryl propenal double bond reductase encoded by cDNA SEQ ID NO:1, expressed in E. coli (protein)
chain: MEQRVPNRELILVAYANEGPVTDSHLNIRETKLDLGSVGKDGSSGDVAVQNLWISVDPYLRQLMKESDDGLYLPSFPLNQAIRSILVGKVVASANPAFEVGDIVSGFYQVSEYAIVPRGDLMKIDTSVVKPSDYLGLLGMPALTAWAGFIIVGEPKPGDEVFVSAAAGSVGMLVGQLAKIKSCRVVGSAGSDQKVKLLKEFGFDDAFNYKCETDLDAALSRYFPRGIDIYFDNVGGRMLEAVLNHINMKARIPLCGMISQYNQEWKQRFGVRNLLNLVGKCAKMEGFMSGQYHHRMGEFFEEMTGYIKQGKIKYKEDVKVGLDSFLEAFNSMFTGENIGKPVIYLGPPLPK
enzymatic activity of the expressed reductase ([2]; expressed in E. coli, GST fusion removed): enzymatically active
